# Laboratory results published in article PMC11983343, “Synthesis of Thiazole-methylsulfonyl Derivatives, X-ray Study, and Investigation of Their Carbonic Anhydrase Activities: In Vitro and In Silico Potentials” (ACS Omega, 2025).
# Legend:
# hCA II = biological target: T1, hCA II (Homo sapiens, UniProt P00918); test: Carbonic anhydrase II inhibition assay (esterase method, p-nitrophenyl acetate, 348 nm); type: biochemical; conditions: hCA II purified from human erythrocytes
# T1 construct: hCA I and hCA II isoenzymes purified from human erythrocytes under in vitro conditions; from tissue; host or cells: human erythrocytes
# Excerpt: (§1) The esterase method was used to investigate the effects of the molecule on hCA isoenzymes.[44] This method is based on the activity of hCA for the hydrolysis of p-nitrophenyl acetate as a substrate for the reaction mechanism of p-nitrophenol or p-nitrophenolate. […] Since p-nitrophenyl acetate has very little absorption at this wavelength, it will be used as a blank. The p-nitrophenyl acetate substrate solution used in the experiments will be prepared daily.[45],[46]
# (§2) Then, the cuvette content containing enzymes, unlike the blank cuvette, was prepared according to Table 1 and placed in the spectrophotometer device. […] Then, molecules at different concentrations were added one by one, the absorbances at 0 and 3 min were measured again, and their differences were taken.[45],[46] […] The enzyme activity values obtained were converted to % activity, their graphs were drawn according to the different concentrations of the molecules, and the IC50 value, that is, the concentration of molecules that reduced the enzyme activity by half, was found. The values were interpreted.
# (§3) For the inhibition study, five different inhibitor concentrations of molecules were used at a fixed substrate concentration, and the inhibitor concentration (IC50) values that reduced the enzyme’s activity by half were determined by drawing % activity–[I] graphs.
# hCA I = biological target: T2, hCA I (Homo sapiens, UniProt P00915); test: Carbonic anhydrase I inhibition assay (esterase method, p-nitrophenyl acetate, 348 nm); type: biochemical; conditions: hCA I purified from human erythrocytes
# T2 construct: hCA I and hCA II isoenzymes purified from human erythrocytes under in vitro conditions; from tissue; host or cells: human erythrocytes
# T2 sequence (P00915 whole entry): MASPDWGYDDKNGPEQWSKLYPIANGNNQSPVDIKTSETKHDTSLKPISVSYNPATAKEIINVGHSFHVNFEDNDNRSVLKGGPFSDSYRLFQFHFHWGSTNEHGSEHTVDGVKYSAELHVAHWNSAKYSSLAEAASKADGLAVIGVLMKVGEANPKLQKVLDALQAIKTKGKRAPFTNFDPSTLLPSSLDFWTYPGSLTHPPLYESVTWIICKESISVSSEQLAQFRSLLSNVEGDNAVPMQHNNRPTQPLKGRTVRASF
# Excerpt: as §1, §2, §3
SMILES,IC50 (hCA II),IC50 (hCA I)
"CC(=NNc1nc(-c2ccc(Cl)cc2Cl)cs1)c1ccc(S(C)(=O)=O)cc1 [2l, 2-(2-(1-(4-(Methylsulfonyl)phenyl)ethylidene)hydrazinyl)-4-(2,4-dichlorophenyl)thiazole]",71.5 µM,67.9 µM
"CC(=NNc1nc(-c2ccc(C#N)cc2)cs1)c1ccc(S(C)(=O)=O)cc1 [2c, 2-(2-(1-(4-(Methylsulfonyl)phenyl)ethylidene)hydrazinyl)-4-(4-cyanophenyl)thiazole]",39.2 µM,63 µM
"CC(=NNc1nc(-c2ccc(F)cc2)cs1)c1ccc(S(C)(=O)=O)cc1 [2d, 2-(2-(1-(4-(Methylsulfonyl)phenyl)ethylidene)hydrazinyl)-4-(4-fluorophenyl)thiazole]",54.1 µM,103 µM
"COc1ccc(-c2csc(NN=C(C)c3ccc(S(C)(=O)=O)cc3)n2)cc1 [2b, 2-(2-(1-(4-(Methylsulfonyl)phenyl)ethylidene)hydrazinyl)-4-(4-methoxyphenyl)thiazole]",76.2 µM,59.8 µM
"CC(=NNc1nc(-c2cccc([N+](=O)[O-])c2)cs1)c1ccc(S(C)(=O)=O)cc1 [2j, 2-(2-(1-(4-(Methylsulfonyl)phenyl)ethylidene)hydrazinyl)-4-(3-nitrophenyl)thiazole]",64.8 µM,80.6 µM
"CC(=NNc1nc(-c2ccc([N+](=O)[O-])cc2)cs1)c1ccc(S(C)(=O)=O)cc1 [2a, 2-(2-(1-(4-(Methylsulfonyl)phenyl)ethylidene)hydrazinyl)-4-(4-nitrophenyl)thiazole]",70 µM,39.4 µM
"CC(=NNc1nc(-c2ccc(F)cc2F)cs1)c1ccc(S(C)(=O)=O)cc1 [2i, 2-(2-(1-(4-(Methylsulfonyl)phenyl)ethylidene)hydrazinyl)-4-(2,4-difluorophenyl)thiazole]",86.6 µM,52.9 µM
"CC(=NNc1nc(-c2ccc(Cl)c(Cl)c2)cs1)c1ccc(S(C)(=O)=O)cc1 [2h, 2-(2-(1-(4-(Methylsulfonyl)phenyl)ethylidene)hydrazinyl)-4-(3,4-dichlorophenyl)thiazole]",38.5 µM,60.8 µM

# Other lines, results leading:
IC50 (hCA II),IC50 (hCA I),SMILES
53.3 µM,44.4 µM,"CC(=NNc1nc(-c2ccccc2)cs1)c1ccc(S(C)(=O)=O)cc1 [2m, 2-(2-(1-(4-(Methylsulfonyl)phenyl)ethylidene)hydrazinyl)-4-phenylthiazole]"
40.5 µM,77.9 µM,"CC(=NNc1nc(-c2ccc(-c3ccccc3)cc2)cs1)c1ccc(S(C)(=O)=O)cc1 [2e, 4-([1,1′-Biphenyl]-4-yl)-2-(2-(1-(4-(methylsulfonyl)phenyl)ethylidene)hydrazinyl)thiazole]"
78.8 µM,198 µM,"CC(=NNc1nc(-c2ccc(C)cc2)cs1)c1ccc(S(C)(=O)=O)cc1 [2g, 2-(2-(1-(4-(Methylsulfonyl)phenyl)ethylidene)hydrazinyl)-4-(4-methylphenyl)thiazole]"
86.6 µM,58.7 µM,"CC(=NNc1nc(-c2ccc(Cl)cc2)cs1)c1ccc(S(C)(=O)=O)cc1 [2k, 2-(2-(1-(4-(Methylsulfonyl)phenyl)ethylidene)hydrazinyl)-4-(4-chlorophenyl) thiazole]"
51.3 µM,133 µM,"CC(=NNc1nc(-c2ccc(Br)cc2)cs1)c1ccc(S(C)(=O)=O)cc1 [2f, 2-(2-(1-(4-(Methylsulfonyl)phenyl)ethylidene)hydrazinyl)-4-(4-bromophenyl)thiazole]"
